Patent US20120088827A1 (Profectus Biosciences, Inc., priority 2009, published 2012)

Tests used:
NF-κB p65 = molecular target: T1, NF-κB p65 (Homo sapiens, UniProt Q04206); assay: TransAM NF-κB Family DNA Binding ELISA, p65; settings: binding to NF-κB consensus oligonucleotide; read-out: p65 binding IC50
T1 construct: purchased Active Motif
Method: (§1) The binding activity of NF-κB heterodimer or homodimer subunits from activated nuclear extracts or purified recombinant NF-κB proteins exposed to the drug compounds was evaluated using the TransAM NF-κB Family binding ELISA (Active Motif). Approximately 3-5 μg of nuclear extracts from TNFα activated Hela or Raji cells (Active Motif) or 20 ng of purified recombinant proteins (p65 and p50 from Active Motif, p52 from Santa Cruz) were incubated for 1 hour at room temperature with 20 μL drug compounds diluted in Complete Lysis buffer without DTT. Treated samples were then transferred to 30 μL Complete Binding Buffer (with DTT) in microplate wells pre-coated with the NF-κB consensus oligonucleotide. […] The plate was incubated for 1 hour at room temperature with gentle shaking and then washed 3 times with 200 μL 1× Wash Buffer. NF-κB p65, p50, p52, RelB, or c-Rel subunits bound to the plate were detected with 100 μL of the primary antibody (diluted 1:1000 in 1× Antibody Buffer) specific for that subunit. The plate was incubated for 1 hour at room temperature and then washed 3 times with 200 μL 1× Wash Buffer. Next, 100 μL of a HRP conjugated goat anti-rabbit antibody (diluted 1:1,000 in 1× Antibody Buffer) was added to each well. The plate was incubated for 1 hour at room temperature and then washed 4 times with 200 μL 1× Wash Buffer. 100 μL of room temperature Developing Solution was added to each well. The reaction was allowed to develop for 2-10 minutes until a medium dark blue color developed (depending on the subunit activity in the lot of extract or lot of recombinant protein used) and then the reaction was stopped with 100 μL Stop Solution yielding a yellow color. Absorbance was recorded using a Becton-Dickinson DTX 880 Multimode Detector at 450 nm with a reference wavelength subtracted at 620 nm.

[1] = test system: NF-κB driven transcription (pTRH1-NF-κB-dscGFP reporter, 293 cells); assay: NF-kB/293/GFP reporter cell assay; assay type: cell-based; settings: Homo sapiens, HEK293; compound 2 hours, then 20 ng/ml TNF-α for 18 hours; fluorescence
Method: Two reporter cell assays were used to determine the ability of the compounds of Examples 1-12 to inhibit NF-κB driven transcription. The first assay was a 293-cell based assay with a stably integrated pNF-κB-luc reporter plasmid containing 3 NF-κB promoter elements. The second assay was a 293-cell based assay with a stably integrated pTRH1-NF-κB-dscGFP reporter containing 4 NF-κB promoter elements. Cells were treated with 0, 0.2, 1, 10, 20 and 40 μM of the compounds of Example 1-12 for 2 hours then were induced with 20 ng/ml TNF-α for 18 hours. Following the induction, luminescence or fluorescence was quantified using a Beckman-Coulter 2300 plate reader. […] As a control, 0.5% DMSO treated and untreated cells were compared to verify that the compounds of Examples 1-12 had no effect on the expression of luciferase or in the readout of the assay. There was a slight decrease in the output from the assay in the DMSO treated population although it was not statistically significant. As a result of the controls, the decrease in activity in the drug treated samples was compared to the DMSO control sample.

RelB = molecular target: T2, RelB (Homo sapiens, UniProt Q01201); assay: TransAM NF-κB Family DNA Binding ELISA, RelB
T2 sequence (Q01201 1-579): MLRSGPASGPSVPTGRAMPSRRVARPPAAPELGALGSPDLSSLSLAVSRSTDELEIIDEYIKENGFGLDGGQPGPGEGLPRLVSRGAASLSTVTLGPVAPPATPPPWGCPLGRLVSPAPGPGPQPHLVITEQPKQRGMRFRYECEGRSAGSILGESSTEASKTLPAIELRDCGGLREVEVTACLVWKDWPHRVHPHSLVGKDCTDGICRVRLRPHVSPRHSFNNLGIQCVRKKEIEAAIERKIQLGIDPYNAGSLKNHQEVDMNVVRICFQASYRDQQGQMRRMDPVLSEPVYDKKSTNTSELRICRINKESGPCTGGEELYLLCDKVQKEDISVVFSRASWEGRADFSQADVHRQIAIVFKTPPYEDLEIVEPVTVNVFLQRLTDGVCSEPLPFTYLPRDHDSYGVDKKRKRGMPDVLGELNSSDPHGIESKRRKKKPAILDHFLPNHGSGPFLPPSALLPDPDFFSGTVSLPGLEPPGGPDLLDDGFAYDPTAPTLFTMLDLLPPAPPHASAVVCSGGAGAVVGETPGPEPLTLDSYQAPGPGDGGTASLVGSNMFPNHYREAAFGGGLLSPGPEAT
Method: as §1

T1 sequence (Q04206 whole entry): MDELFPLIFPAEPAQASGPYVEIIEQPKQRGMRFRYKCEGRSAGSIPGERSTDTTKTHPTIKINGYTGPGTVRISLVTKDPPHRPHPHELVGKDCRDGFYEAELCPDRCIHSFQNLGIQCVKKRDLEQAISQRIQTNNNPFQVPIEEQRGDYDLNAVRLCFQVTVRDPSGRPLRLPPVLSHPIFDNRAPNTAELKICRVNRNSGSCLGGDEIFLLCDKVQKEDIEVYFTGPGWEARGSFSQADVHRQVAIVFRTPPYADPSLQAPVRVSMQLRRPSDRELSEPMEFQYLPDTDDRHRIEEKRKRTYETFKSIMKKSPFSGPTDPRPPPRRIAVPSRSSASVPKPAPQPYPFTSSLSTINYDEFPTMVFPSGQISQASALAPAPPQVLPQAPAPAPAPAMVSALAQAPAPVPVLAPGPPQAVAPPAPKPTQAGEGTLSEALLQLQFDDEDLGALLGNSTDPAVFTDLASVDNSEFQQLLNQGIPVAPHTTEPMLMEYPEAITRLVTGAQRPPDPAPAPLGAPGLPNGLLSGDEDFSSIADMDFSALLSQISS

Q: With CC(C)CC(=O)Oc1ccccc1C(=O)NC1=CC(=O)C2OC2C1O (racemic) [Example 1, (±)-2-(2-hydroxy-5-oxo-7-oxabicyclo[4.1.0]hept-3-en-3-ylcarbamoyl)phenyl 3-methylbutanoate] as the compound, how does the IC50 (NF-κB p65) read?
A: The IC50 was 214 µM.

Q: And the EC50 [1]?
A: Its EC50 is 11 µM.

Q: And the inhibition at 5 µM (RelB)?
A: The inhibition at 5 µM was 0%.

Q: Which results are given for CC(C)OC(=O)Oc1ccccc1C(=O)NC1=CC(=O)C2OC2C1OC(=O)OC(C)C (racemic) [Example 2, (±)-3-(2-isopropoxycarbonyloxy-benzoylamino)-5-oxo-7-oxa-bicyclo[4.1.0]hept-3-en-2-yl ester isopropyl ester]?
A: IC50 (NF-κB p65): > 376 µM; inhibition at 5 µM (RelB): 2%

Q: What does the source list for O=C(CC1CCCCC1)Oc1ccccc1C(=O)NC1=CC(=O)C2OC2C1O (racemic) [Example 3, (±)-2-(2-hydroxy-5-oxo-7-oxabicyclo[4.1.0]hept-3-en-3-ylcarbamoyl)phenyl 2-cyclohexylacetate]?
A: IC50 (NF-κB p65): 93 µM; EC50 [1]: 10 µM; inhibition at 5 µM (RelB): 3%

Q: CCCC(C)C(=O)Oc1ccccc1C(=O)NC1=CC(=O)C2OC2C1O (racemic) [Example 4, (±)-2-(2-hydroxy-5-oxo-7-oxabicyclo[4.1.0]hept-3-en-3-ylcarbamoyl)phenyl 2-methylpentanoate] was tested. Which IC50 (NF-κB p65) did it give?
A: The IC50 was 149 µM.

Q: And the EC50 [1]?
A: Its EC50 is 17 µM.

Q: What about the inhibition at 5 µM (RelB) of the same compound?
A: The inhibition at 5 µM was 5%.

Q: With CCCCC(CC)C(=O)Oc1ccccc1C(=O)NC1=CC(=O)C2OC2C1O (racemic) [Example 5, (±)-2-(2-hydroxy-5-oxo-7-oxabicyclo[4.1.0]hept-3-en-3-ylcarbamoyl)phenyl 2-ethylhexanoate] as the compound, how does the IC50 (NF-κB p65) read?
A: The IC50 was > 430 µM.

Q: And the EC50 [1]?
A: The EC50 was 6.7 µM.

Q: What about the inhibition at 5 µM (RelB) of the same compound?
A: Its inhibition at 5 µM is 5%.

Q: What does the source list for CC(C)(C)CC(=O)Oc1ccccc1C(=O)NC1=CC(=O)C2OC2C1O (racemic) [Example 6, (±)-2-(2-hydroxy-5-oxo-7-oxabicyclo[4.1.0]hept-3-en-3-ylcarbamoyl)phenyl 3,3-dimethylbutanoate]?
A: IC50 (NF-κB p65): 67 µM; EC50 [1]: 10 µM; inhibition at 5 µM (RelB): 3%

Q: CC(C)OC(=O)Oc1ccccc1C(=O)NC1=CC(=O)C2OC2C1O (racemic) [Example 7, (±)-2-(2-hydroxy-5-oxo-7-oxabicyclo[4.1.0]hept-3-en-3-ylcarbamoyl)phenyl isopropyl carbonate] was tested. Which IC50 (NF-κB p65) did it give?
A: The IC50 was > 480 µM.

Q: What about the EC50 [1] of the same compound?
A: The EC50 was 8.4 µM.

Q: And the inhibition at 5 µM (RelB)?
A: Its inhibition at 5 µM is 0%.

Q: For CC(C)OC(=O)OC1C(NC(=O)c2ccccc2O)=CC(=O)C2OC21 (racemic) [Example 8], which IC50 (NF-κB p65) is on record?
A: Its IC50 is 336 µM.

Q: And the EC50 [1]?
A: The EC50 was 14 µM.

Q: What about the inhibition at 5 µM (RelB) of the same compound?
A: The inhibition at 5 µM was 2%.
